Converted amounts (≈) assume the structure as drawn.
How the values were obtained:
[1] = molecular target: T1, Group 10 secretory phospholipase A2 (Homo sapiens, UniProt O15496); assay: Inhibition of recombinant human sPLA2-10 using human HDL as substrate pretreated for 20 mins followed by substrate addition and measured after 60 mins by NEFA based assay
T1 sequence (O15496 whole entry): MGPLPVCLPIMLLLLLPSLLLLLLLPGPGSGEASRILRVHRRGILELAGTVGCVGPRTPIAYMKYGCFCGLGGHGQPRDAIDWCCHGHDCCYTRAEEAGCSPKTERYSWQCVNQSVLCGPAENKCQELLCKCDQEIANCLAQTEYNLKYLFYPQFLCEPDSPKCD

[2] = molecular target: Sodium channel protein type 5 subunit alpha (Homo sapiens, UniProt Q14524); assay: Inhibition of human Nav1.5 expressed in CHO cells by ionworks patch clamp assay; assay type: cell-based
[3] = molecular target: Cytochrome P450 2C19 (Homo sapiens, UniProt P33261); assay: Inhibition of recombinant human CYP2C19; assay type: ADME
[4] = Fraction unbound in C57Bl/6J mouse plasma; assay type: ADME, cell-free
[5] = molecular target: T2, Phospholipase A2, membrane associated (Homo sapiens, UniProt P14555); assay: Inhibition of sPLA2-2A (unknown origin) using 1-palmitoyl-2-oleoyl-sn-glycero-3-phosphocholine as substrate pretreated for 20 mins followed by substrate addition and measured after 60 mins by NEFA based assay
T2 sequence (P14555 whole entry): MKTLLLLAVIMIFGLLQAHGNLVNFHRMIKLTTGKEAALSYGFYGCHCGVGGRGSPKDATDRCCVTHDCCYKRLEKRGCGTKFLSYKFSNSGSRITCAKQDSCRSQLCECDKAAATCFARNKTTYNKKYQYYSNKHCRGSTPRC

[6] = molecular target: Cytochrome P450 3A4 (Homo sapiens, UniProt P08684); assay: Inhibition of recombinant human CYP3A4; assay type: ADME
[7] = tested on: Mus musculus; assay: Toxicity in ApoE knockout pro-atherogenic western diet-induced Tac mouse carotid artery ligation model of atherosclerosis assessed as histopathological changes in kidney at 75 to 150 umol/kg/day mixed with food measured for 3 weeks by hematoxylin-eosin staining based assay; assay type: organism-based; details: in vivo, po, 504 h
[8] = Lipophilicity, log D of compound at pH 7.4; details: buffer
[9] = molecular target: Voltage-dependent L-type calcium channel subunit alpha-1C (Homo sapiens, UniProt Q13936); assay: Inhibition of human Cav1.2 expressed in CHO cells by ionworks patch clamp assay; assay type: cell-based
[10] = Half life in human hepatocytes; assay type: ADME, cell-based, Hepatocyte
[11] = molecular target: A-type voltage-gated potassium channel KCND3 (Homo sapiens, UniProt Q9UK17); assay: Inhibition of human Kv4.3 expressed in CHO cells by ionworks patch clamp assay; assay type: cell-based
[12] = molecular target: T1, Group 10 secretory phospholipase A2; assay: Inhibition of sPLA2-10 (unknown origin) using 1-palmitoyl-2-oleoyl-sn-glycero-3-phosphocholine as substrate pretreated for 20 mins followed by substrate addition and measured after 60 mins by NEFA based assay
[13] = tested on: Mus musculus; assay: Toxicity in ApoE knockout pro-atherogenic western diet-induced Tac mouse carotid artery ligation model of atherosclerosis assessed as histopathological changes in heart at 75 to 150 umol/kg/day mixed with food measured for 3 weeks by hematoxylin-eosin staining based assay; assay type: organism-based; details: in vivo, po, 504 h
[14] = Ratio of free drug level in ApoE knockout pro-atherogenic western diet-induced Tac mouse at 150 umol/kg measured after 3 weeks to IC90 for recombinant human sPLA2-10 using human HDL as substrate; assay type: ADME; details: in vivo, 504 h
[15] = tested on: Mus musculus; assay: Toxicity in ApoE knockout pro-atherogenic western diet-induced Tac mouse carotid artery ligation model of atherosclerosis assessed as histopathological changes in intestine at 75 to 150 umol/kg/day mixed with food measured for 3 weeks by hematoxylin-eosin staining based assay; assay type: organism-based; details: in vivo, po, 504 h
[16] = molecular target: Voltage-dependent T-type calcium channel subunit alpha-1H (Homo sapiens, UniProt O95180); assay: Inhibition of human Cav3.2 expressed in CHO cells by ionworks patch clamp assay; assay type: cell-based
[17] = tested on: Mus musculus; assay: Toxicity in ApoE knockout pro-atherogenic western diet-induced Tac mouse carotid artery ligation model of atherosclerosis assessed as histopathological changes in ceacum at 75 to 150 umol/kg/day mixed with food measured for 3 weeks by hematoxylin-eosin staining based assay; assay type: organism-based; details: in vivo, po, 504 h
[18] = Apparent permeability in human Caco2 cells; assay type: ADME, cell-based; details: Caco-2
[19] = molecular target: Cytochrome P450 1A2 (Homo sapiens, UniProt P05177); assay: Inhibition of recombinant human CYP1A2; assay type: ADME
[20] = molecular target: Cytochrome P450 2D6 (Homo sapiens, UniProt P10635); assay: Inhibition of recombinant human CYP2D6; assay type: ADME
[21] = Ratio of free drug level in ApoE knockout pro-atherogenic western diet-induced Tac mouse at 75 umol/kg measured after 3 weeks to IC50 for recombinant human sPLA2-10 using human HDL as substrate; assay type: ADME; details: in vivo, 504 h
[22] = tested on: Mus musculus; assay: Toxicity in ApoE knockout pro-atherogenic western diet-induced Tac mouse carotid artery ligation model of atherosclerosis assessed as histopathological changes in liver at 75 to 150 umol/kg/day mixed with food measured for 3 weeks by hematoxylin-eosin staining based assay; assay type: organism-based; details: in vivo, po, 504 h
[23] = molecular target: Group 10 secretory phospholipase A2 (Mus musculus, UniProt Q9QXX3); assay: Inhibition of mouse sPLA2-10
[24] = Solubility of the compound in DMSO/HBSS solution at pH 7.4 after 24 hrs by LC-UV/MS analysis; assay type: physicochemical
[25] = molecular target: Cytochrome P450 2C8 (Homo sapiens, UniProt P10632); assay: Inhibition of recombinant human CYP2C8; assay type: ADME
[26] = Volume of distribution at steady state in C57Bl/6J mouse at 10 umol/kg, iv or 50 umol/kg, po; assay type: ADME, organism-based; details: in vivo, read-out: Vdss
[27] = tested on: Mus musculus; assay: Unbound clearance in C57Bl/6J mouse at 10 umol/kg, iv or 50 umol/kg, po; assay type: ADME, organism-based; details: in vivo
[28] = tested on: Mus musculus; assay: Toxicity in ApoE knockout pro-atherogenic western diet-induced Tac mouse carotid artery ligation model of atherosclerosis assessed as histopathological changes in lung at 75 to 150 umol/kg/day mixed with food measured for 3 weeks by hematoxylin-eosin staining based assay; assay type: organism-based; details: in vivo, po, 504 h
[29] = Inhibition of human Iks expressed in CHO cells by ionworks patch clamp assay; assay type: cell-based
[30] = tested on: Mus musculus; assay: Toxicity in ApoE knockout pro-atherogenic western diet-induced Tac mouse carotid artery ligation model of atherosclerosis assessed as histopathological changes in duodenum at 75 to 150 umol/kg/day mixed with food measured for 3 weeks by hematoxylin-eosin staining based assay; assay type: organism-based; details: in vivo, po, 504 h
[31] = tested on: Mus musculus; assay: Toxicity in ApoE knockout pro-atherogenic western diet-induced Tac mouse carotid artery ligation model of atherosclerosis assessed as histopathological changes in stomach at 75 to 150 umol/kg/day mixed with food measured for 3 weeks by hematoxylin-eosin staining based assay; assay type: organism-based; details: in vivo, po, 504 h
[32] = tested on: Mus musculus; assay: Toxicity in ApoE knockout pro-atherogenic western diet-induced Tac mouse carotid artery ligation model of atherosclerosis assessed as effect on liver enzyme levels at 75 to 150 umol/kg/day mixed with food measured for 3 weeks; assay type: organism-based; details: in vivo, po, 504 h
[33] = molecular target: T3, Phospholipase A2 group V (Homo sapiens, UniProt P39877); assay: Inhibition of sPLA2-5 (unknown origin) using 1-palmitoyl-2-oleoyl-sn-glycero-3-phosphocholine as substrate pretreated for 20 mins followed by substrate addition and measured after 60 mins by NEFA based assay
T3 sequence (P39877 whole entry): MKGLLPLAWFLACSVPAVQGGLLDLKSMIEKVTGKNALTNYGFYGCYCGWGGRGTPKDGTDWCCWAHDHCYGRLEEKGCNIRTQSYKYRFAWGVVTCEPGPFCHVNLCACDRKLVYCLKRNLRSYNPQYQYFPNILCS

[34] = tested on: Mus musculus; assay: Unbound clearance in C57Bl/6J mouse administered iv or po; assay type: ADME, organism-based; details: in vivo
[35] = Ratio of free drug level in ApoE knockout pro-atherogenic western diet-induced Tac mouse at 75 umol/kg measured after 1 week to IC50 for recombinant human sPLA2-10 using human HDL as substrate; assay type: ADME; details: in vivo, 168 h
[36] = molecular target: Cytochrome P450 2C9 (Homo sapiens, UniProt P11712); assay: Inhibition of recombinant human CYP2C9; assay type: ADME
[37] = tested on: Mus musculus; assay: Toxicity in ApoE knockout pro-atherogenic western diet-induced Tac mouse carotid artery ligation model of atherosclerosis assessed as reduction in body weight at 75 to 150 umol/kg/day mixed with food measured for 3 weeks; assay type: organism-based; details: in vivo, po, 504 h
[38] = molecular target: Voltage-gated inwardly rectifying potassium channel KCNH2 (Homo sapiens, UniProt Q12809); assay: Inhibition of human ERG expressed in CHO cells by ionworks patch clamp assay; assay type: cell-based
[39] = Oral bioavailability in C57Bl/6J mouse at 50 umol/kg; assay type: ADME, organism-based; details: in vivo
[40] = Ratio of free drug level in ApoE knockout pro-atherogenic western diet-induced Tac mouse at 150 umol/kg measured after 1 week to IC90 for recombinant human sPLA2-10 using human HDL as substrate; assay type: ADME; details: in vivo, 168 h
[41] = Drug metabolism in human liver microsomes in presence of glutathione after 30 mins; assay type: ADME, microsome; details: 0.5 h

Chain of A-type voltage-gated potassium channel KCND3 (Q9UK17 whole entry): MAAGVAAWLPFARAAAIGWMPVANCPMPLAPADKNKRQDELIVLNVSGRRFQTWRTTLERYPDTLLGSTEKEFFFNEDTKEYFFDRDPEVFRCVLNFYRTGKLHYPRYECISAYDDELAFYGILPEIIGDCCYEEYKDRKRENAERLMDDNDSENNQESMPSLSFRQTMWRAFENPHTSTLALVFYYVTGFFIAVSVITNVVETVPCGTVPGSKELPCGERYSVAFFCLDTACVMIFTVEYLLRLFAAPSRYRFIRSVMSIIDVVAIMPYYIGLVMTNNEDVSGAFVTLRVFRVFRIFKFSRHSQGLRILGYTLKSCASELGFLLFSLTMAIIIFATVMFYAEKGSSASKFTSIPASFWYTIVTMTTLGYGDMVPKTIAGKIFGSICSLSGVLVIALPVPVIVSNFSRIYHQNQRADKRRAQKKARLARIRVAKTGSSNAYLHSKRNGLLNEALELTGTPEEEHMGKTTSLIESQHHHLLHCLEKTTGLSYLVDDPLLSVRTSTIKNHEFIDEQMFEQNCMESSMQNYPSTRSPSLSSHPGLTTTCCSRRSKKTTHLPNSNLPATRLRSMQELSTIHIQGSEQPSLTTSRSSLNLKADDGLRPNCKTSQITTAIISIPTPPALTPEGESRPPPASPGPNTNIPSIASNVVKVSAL
Chain of Voltage-gated inwardly rectifying potassium channel KCNH2 (Q12809 whole entry): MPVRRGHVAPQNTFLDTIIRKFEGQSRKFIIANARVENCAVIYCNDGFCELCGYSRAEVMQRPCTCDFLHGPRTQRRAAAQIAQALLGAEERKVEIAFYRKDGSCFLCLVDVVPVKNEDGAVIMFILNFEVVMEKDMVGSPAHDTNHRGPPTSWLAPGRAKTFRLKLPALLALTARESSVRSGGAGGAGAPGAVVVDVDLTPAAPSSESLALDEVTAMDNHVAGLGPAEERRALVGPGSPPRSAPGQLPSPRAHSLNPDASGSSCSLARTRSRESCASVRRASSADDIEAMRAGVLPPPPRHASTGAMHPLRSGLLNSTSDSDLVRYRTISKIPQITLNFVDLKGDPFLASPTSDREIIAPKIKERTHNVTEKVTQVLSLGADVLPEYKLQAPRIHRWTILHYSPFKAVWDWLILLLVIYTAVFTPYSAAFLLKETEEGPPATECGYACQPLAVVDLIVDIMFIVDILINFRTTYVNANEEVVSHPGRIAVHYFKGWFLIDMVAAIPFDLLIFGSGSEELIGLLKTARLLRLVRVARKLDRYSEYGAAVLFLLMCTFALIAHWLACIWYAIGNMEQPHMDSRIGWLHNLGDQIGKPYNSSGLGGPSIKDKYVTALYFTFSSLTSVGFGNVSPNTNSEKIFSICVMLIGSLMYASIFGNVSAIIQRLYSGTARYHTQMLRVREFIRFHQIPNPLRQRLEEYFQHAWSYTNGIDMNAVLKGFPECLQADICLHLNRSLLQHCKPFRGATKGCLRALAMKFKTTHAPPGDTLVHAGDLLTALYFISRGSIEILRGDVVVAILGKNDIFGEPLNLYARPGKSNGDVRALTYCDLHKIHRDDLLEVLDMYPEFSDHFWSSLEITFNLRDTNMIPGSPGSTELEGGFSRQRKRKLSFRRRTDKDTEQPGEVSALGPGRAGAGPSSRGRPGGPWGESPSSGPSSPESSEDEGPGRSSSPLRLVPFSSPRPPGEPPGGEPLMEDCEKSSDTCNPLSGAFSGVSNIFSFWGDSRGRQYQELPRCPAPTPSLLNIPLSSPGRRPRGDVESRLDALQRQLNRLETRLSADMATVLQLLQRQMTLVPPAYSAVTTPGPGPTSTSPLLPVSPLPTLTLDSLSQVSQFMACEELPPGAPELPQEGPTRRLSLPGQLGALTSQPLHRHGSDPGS
Chain of Group 10 secretory phospholipase A2 (Mus musculus, UniProt Q9QXX3) (Q9QXX3 whole entry): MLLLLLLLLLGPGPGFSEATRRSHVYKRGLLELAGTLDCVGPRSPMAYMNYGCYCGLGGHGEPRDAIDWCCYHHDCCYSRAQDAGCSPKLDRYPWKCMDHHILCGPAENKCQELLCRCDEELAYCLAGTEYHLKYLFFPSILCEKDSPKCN
Chain of Voltage-dependent T-type calcium channel subunit alpha-1H (O95180 whole entry): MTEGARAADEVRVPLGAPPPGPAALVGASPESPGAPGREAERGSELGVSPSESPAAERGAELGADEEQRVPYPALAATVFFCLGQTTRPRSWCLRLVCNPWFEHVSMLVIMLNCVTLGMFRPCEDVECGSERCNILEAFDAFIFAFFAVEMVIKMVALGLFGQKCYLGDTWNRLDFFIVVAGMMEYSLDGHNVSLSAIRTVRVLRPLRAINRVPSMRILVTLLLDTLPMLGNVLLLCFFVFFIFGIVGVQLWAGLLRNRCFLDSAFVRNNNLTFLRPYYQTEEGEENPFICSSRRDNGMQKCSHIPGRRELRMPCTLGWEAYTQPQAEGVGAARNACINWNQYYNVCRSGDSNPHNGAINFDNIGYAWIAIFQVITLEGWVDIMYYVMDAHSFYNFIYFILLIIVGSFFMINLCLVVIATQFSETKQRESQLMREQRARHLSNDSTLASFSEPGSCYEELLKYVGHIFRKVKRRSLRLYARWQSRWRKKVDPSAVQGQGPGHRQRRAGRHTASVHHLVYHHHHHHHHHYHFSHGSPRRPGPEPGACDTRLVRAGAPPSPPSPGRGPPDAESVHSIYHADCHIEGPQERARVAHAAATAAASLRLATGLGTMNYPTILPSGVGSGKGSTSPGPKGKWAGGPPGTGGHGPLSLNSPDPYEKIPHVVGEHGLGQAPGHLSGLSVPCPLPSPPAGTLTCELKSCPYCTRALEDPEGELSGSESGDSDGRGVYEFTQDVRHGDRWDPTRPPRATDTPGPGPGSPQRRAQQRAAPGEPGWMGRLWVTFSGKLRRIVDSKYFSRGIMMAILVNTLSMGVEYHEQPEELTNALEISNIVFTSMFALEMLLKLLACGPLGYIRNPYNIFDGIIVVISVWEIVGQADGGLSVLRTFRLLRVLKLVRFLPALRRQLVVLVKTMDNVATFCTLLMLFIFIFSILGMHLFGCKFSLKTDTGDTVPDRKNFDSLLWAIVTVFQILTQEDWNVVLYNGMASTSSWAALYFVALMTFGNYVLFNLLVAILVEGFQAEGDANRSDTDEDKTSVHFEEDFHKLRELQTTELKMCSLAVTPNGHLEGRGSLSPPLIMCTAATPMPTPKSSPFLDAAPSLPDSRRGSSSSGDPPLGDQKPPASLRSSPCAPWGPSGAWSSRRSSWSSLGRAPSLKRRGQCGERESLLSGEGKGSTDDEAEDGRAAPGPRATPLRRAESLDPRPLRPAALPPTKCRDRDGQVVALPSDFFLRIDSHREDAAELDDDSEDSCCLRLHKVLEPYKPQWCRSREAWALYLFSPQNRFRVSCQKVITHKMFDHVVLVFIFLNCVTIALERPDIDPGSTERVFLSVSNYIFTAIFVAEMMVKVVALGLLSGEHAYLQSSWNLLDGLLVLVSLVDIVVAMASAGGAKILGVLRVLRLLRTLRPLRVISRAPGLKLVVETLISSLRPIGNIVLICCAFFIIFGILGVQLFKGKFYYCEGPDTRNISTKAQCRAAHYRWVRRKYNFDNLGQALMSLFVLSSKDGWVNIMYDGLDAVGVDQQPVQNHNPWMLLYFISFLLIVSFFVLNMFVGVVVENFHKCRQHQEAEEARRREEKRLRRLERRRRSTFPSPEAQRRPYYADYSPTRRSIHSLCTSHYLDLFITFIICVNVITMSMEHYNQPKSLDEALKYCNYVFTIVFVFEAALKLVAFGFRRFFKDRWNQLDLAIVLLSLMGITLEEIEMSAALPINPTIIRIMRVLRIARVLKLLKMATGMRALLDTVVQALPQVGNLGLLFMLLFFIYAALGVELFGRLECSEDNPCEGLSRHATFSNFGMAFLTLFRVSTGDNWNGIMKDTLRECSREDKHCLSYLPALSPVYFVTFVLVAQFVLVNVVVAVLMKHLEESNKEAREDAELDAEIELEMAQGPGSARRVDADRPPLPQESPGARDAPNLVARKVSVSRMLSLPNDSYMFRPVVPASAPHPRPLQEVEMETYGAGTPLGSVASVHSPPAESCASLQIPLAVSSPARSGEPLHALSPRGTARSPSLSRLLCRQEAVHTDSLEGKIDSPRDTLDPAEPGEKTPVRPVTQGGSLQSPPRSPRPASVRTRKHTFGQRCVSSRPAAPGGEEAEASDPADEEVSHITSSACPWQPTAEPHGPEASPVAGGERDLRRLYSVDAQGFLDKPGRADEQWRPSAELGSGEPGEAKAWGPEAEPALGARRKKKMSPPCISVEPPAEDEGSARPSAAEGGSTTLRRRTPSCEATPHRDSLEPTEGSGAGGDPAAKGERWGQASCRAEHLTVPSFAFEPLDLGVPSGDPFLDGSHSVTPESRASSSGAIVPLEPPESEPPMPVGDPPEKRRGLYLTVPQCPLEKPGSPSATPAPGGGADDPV
Chain of Cytochrome P450 2C19 (P33261 whole entry): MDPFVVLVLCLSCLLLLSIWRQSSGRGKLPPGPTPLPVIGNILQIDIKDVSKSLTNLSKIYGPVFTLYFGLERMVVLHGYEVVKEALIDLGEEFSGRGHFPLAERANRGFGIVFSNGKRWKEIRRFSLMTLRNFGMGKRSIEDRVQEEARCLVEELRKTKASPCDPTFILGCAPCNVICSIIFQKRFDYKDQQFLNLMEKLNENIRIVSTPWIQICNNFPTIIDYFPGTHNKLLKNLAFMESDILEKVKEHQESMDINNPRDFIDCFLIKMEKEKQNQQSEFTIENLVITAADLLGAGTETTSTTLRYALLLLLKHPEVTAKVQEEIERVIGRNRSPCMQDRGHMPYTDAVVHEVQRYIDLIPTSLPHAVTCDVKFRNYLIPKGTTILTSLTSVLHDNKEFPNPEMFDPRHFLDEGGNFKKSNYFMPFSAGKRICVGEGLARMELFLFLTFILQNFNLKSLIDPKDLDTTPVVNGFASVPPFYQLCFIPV

IC50 [1]: 0.042 µM
IC50 [3]: > 20 µM
fraction unbound [4]: 0.05
IC50 [5]: 0.63 µM
IC50 [6]: > 20 µM
logD [8]: 0.9
half-life [10]: > 2.88 h
IC50 [11]: > 33 µM
IC50 [12]: 0.014 µM
Ratio [14]: > 7
IC50 [16]: > 33 µM
Papp [18]: 5.8 ×10⁻⁶ cm/s
IC50 [19]: > 20 µM
IC50 [20]: > 20 µM
Ratio [21]: > 7
IC50 [23]: 0.075 µM
solubility at 24 h [24]: 100 µM (≈ 40.7 µg/mL)
IC50 [25]: > 20 µM
Vd [26]: 0.52 L/kg
CL free [27]: 306 mL/min/kg
IC50 [29]: > 33 µM
IC50 [33]: 5.5 µM
CL free [34]: 306 mL/min/kg
Ratio [35]: > 7
IC50 [36]: > 20 µM
bioavailability [39]: 95%
Ratio [40]: > 7
Drug metabolism [41]: Metabolite_Notdetected
SMILES: CC(CC(=O)O)c1cccc(-n2c(C(N)=O)cc3ccc(OC(F)(F)F)cc32)n1 (stereo in doubt; (-)-17)
IC50 [2]: > 33 µM
Activity [7]: Non-Toxic
IC50 [9]: > 33 µM
Activity [13]: Non-Toxic
Activity [15]: Non-Toxic
Activity [17]: Non-Toxic
Activity [22]: Non-Toxic
Activity [28]: Non-Toxic
Activity [30]: Non-Toxic
Activity [31]: Non-Toxic
Activity [32]: Non-Toxic
Activity [37]: Non-Toxic
IC50 [38]: > 33 µM

Source: ChEMBL document CHEMBL4196112, “Design of Selective sPLA2-X Inhibitor (-)-2-{2-[Carbamoyl-6-(trifluoromethoxy)-1H-indol-1-yl]pyridine-2-yl}propanoic Acid” (ACS Med Chem Lett, 2018)
